What was measured:
in vivo = conditions: male, C57Bl/6, mouse
Protocol: Pharmacokinetics were evaluated in male C57Bl/6 mice, approximately 25 g. Test compounds were formulated at 0.3 mg/mL for intravenous dosing and 1 mg/mL for oral gavage. Formulation concentrations reflect free-base concentrations. Formulations were prepared by dissolving in DMSO (20× stock) and mixing 1:1 with tween-80. Prior to dosing, the formulation was diluted with sterile saline. The final formulation was 5% DMSO, 5% tween-80, 90% saline (v:v:v). Mice (n=3) were dosed at 10 μL per gram body weight. […] A total of 25 μL blood was collected at each time point. The hematocrit tubes were sealed with a wax plug and held on ice until plasma could be isolated via centrifugation in a microcentrifuge fit with a hematocrit rotor.
Drug levels were determined from 5 μL plasma. Plasma was treated with 75 μL 90/10 acetonitrile/water containing Carbamazepine as an internal standard (IS). Samples were loaded to a 96-well Millipore Multiscreen Solvinter 0.45 micron low binding PTFE hydrophilic filter plate and the filtrate was directly analyzed. All plasma samples were treated with 75 μL 90/10 acetonitrile/water with Carbamazepine as internal standard (IS) to extract the analyte and precipitate protein. The plates were agitated on ice for approximately five minutes prior to centrifugation into a collection plate. Separate standard curves were prepared in blank mouse plasma and brain homogenate and processed in parallel with the samples. The filtrate was directly analyzed by LC-MS/MS.

M^Pro = M^Pro (Severe acute respiratory syndrome coronavirus 2, UniProt P0DTD1); assay: Chemoproteomic enrichment of proteins labelled by SM144 in A549-hACE2 lysate spiked with M^Pro; assay type: binding, SARS-CoV-2; conditions: 1 μM SM144, lysate spiked with 250 nM M^Pro
Protocol: The proteome-wide selectivity was evaluated via an orthogonal chemoproteomic assay. […] Subsequently, the labeled proteins were biotinylated with copper-catalyzed click chemistry in the presence of Biotin-azide, and the biotinylated proteins were selectively enriched on Streptavidin-agarose beads, proteolyzed with trypsin and analyzed by chemoproteomic analysis. […] There were, however, a few cellular off-targets, including glutathione reductase (GSHR), adenosylhomocysteinase (SAHH), aldose reductase (ALDR), S-adenosylmethionine synthase isoform type-2 (METK2), gamma-actin (ACTG), tubulin alpha-4A chain (TBA4A), ubiquitin-like modifier-activating enzyme 1 (UBA1) and junction plakoglobin (PLAK).
A549-hACE2 cell lysate was prepared as described earlier. Endogenous biotinylated proteins were precleared by incubating the lysates with streptavidin-agarose beads (25 μL for 1 mg of total protein in the lysate) at room temperature for 1 h with constant mixing on an end-over-end shaker. The mixture was centrifuged (1200 g, 3 minute) to separate the beads and the supernatant (pre-cleared lysate). […] The assay mixture was incubated at 25° C. for 30 min. Then Biotin-N3 (200 μM), TCEP (1 mM), TBTA (0.3 mM) and freshly prepared CuSO4 (4 mM) were added sequentially, and the tubes were gently tumbled at room temperature for 2 h. […]

Compound	AUC(0-inf) (in vivo; ip) [ng·h/mL]	AUC(0-t) (in vivo; ip) [µM·h]	Cmax (in vivo; ip) [µM]	Tmax (in vivo; ip) [min]	bioavailability (in vivo; ip) [%]	half-life (in vivo; ip) [min]	AUC(0-inf) (in vivo; iv) [ng·h/mL]	AUC(0-t) (in vivo; iv) [µM·h]	Cmax (in vivo; iv) [µM]	MRT inf (in vivo; iv) [min]	Tmax (in vivo; iv) [min]	Vd (in vivo; iv) [L/kg]	half-life (in vivo; iv) [min]	proteome-wide selectivity (enriched proteins) (M^Pro)
CCOC(=O)C=CC(CC1CCNC1=O)NC(=O)C(Cc1ccccc1)NC(=O)C(N)Cc1ccccc1 (centres unmarked) [SM141]	827	1.6	2.7	8.4	35.2	48	706	1.3	3.9	24	4.8	1.6	48	–
C#CCOCCC(=O)NC(Cc1ccc(F)cc1)C(=O)NC(Cc1ccccc1)C(=O)NC(C=CC(=O)OCC)CC1CCNC1=O (centres unmarked) [SM144]	–	–	–	–	–	–	–	–	–	–	–	–	–	M^Pro is the most statistically significantly enriched protein

— patent publication US20250326715A1, “NOVEL MAIN PROTEASE INHIBITORS, AND COMPOSITIONS AND METHODS THEREOF” (University of Massachusetts, priority 2023, published 2025)
